In patent publication US10525055B2, “Opioid receptor antagonist prodrugs” (Nirsum Laboratories, Inc., priority 2017, dated 2020):

Experiments:
[1] = Polymorph screening of solid state drug substances; settings: for XRPD results (Dried): stirred 50 °C 72 hours, solids dried; for Visual observation 50° C. / Visual observation RT: target conc. 100 mg/ml; for Comment: stability of initial crystal form (pattern A): polymorph screen over Heptane
[2] = Plasma stability assay, rat plasma; format: in vitro ADME; settings: 37° C., 10 μM
[3] = Physical characterization of solid state drug substance (PLM, XRPD, DSC, TGA); format: physicochemical; settings: for Thermal Gravimetric Analysis, weight loss: at 120° C., heated from room temperature at 10° C./minute
Protocol: The analysis of the physical characteristics of drug substances that were in a solid state was conducted using polarized light microscopy (PLM), X-ray powder diffractometer (XRPD) assessment, Differential Scanning calorimetry (DSC) and Thermal Gravimetric Analysis (TGA). For PLM, samples were dispersed in immersion oil and were observed using an ocular lens (10×) and objective lens (20×) under crossed polarizers. For XRPD, samples were run on a diffractometer using the following method: Tube—Cu: K-alpha (λ=1.54179 Å); Generator—Voltage 40 kV, Current 40 mA; Scan scope—3 to 40°; sample rotation speed—15 rpm; scanning rate—10 deg/min. For DSC, ˜1 mg of sample was tested using a crimped aluminum pan and covered by a lid with a hole, heated from room temperature to 300° C. at a speed of 10° C./minute. For TGA, 2-5 mg of sample was placed in an open platinum pan and heated from room temperature to 300° C. at a rate of 10° C./minute.

[4] = Solubility determination in oil (cottonseed oil, sesame oil); settings: heating temp. 60 °C
Protocol: A known amount of test substance (˜40 mg) was weighed into the vial, 100 μL of oil was added and heated to 60° C. and then system was slurried to reach equilibrium. […] Extra oil was added into the vial once compound precipitated out and then the system was re-equilibrated at 1000 rpm at room temperature (25° C.). Final concentration was determined by HPLC method as described below in Table 6a and 6b.

[5] = MTBE, Isopropanol, EtOAc, Acetone

Compound | XRPD results (Dried) ([1]; Acetone) | Visual observation 50° C. ([1]; Acetone) | Visual observation RT ([1]; Acetone) | XRPD results (Dried) ([1]; EtOAc) | Visual observation 50° C. ([1]; EtOAc) | Visual observation RT ([1]; EtOAc) | XRPD results (Dried) ([1]; Heptane) | Visual observation 50° C. ([1]; Heptane) | Visual observation RT ([1]; Heptane) | XRPD results (Dried) ([1]; Isopropanol) | Visual observation 50° C. ([1]; Isopropanol) | Visual observation RT ([1]; Isopropanol) | XRPD results (Dried) ([1]; MTBE) | Visual observation 50° C. ([1]; MTBE) | Visual observation RT ([1]; MTBE) | % remaining at time point in minutes, 0 min [2] | % remaining at time point in minutes, 15 min [2] | % remaining at time point in minutes, 120 min [2] | % remaining at time point in minutes, 480 min [2] | % remaining at time point in minutes, 1440 min [2] | also measured
CCCCCCCCCCOC(=O)Oc1ccc2c3c1O[C@H]1C(=O)CC[C@@]4(O)C(C2)N(CC2CC2)CC[C@]314 [Compound 10, (4aS,7aR,12bS)-3-(cyclopropylmethyl)-4a-hydroxy-7-oxo-2,3,4,4a,5,6,7,7a-octahydro-1H-4,12-methanobenzofuro[3,2-e]isoquinolin-9-yl decyl carbonate] | Pattern A | Clear | Slurry | Pattern A | Clear | Slurry | Pattern A | Slurry | Slurry | Pattern A | Clear | Slurry | Pattern A | Clear | Clear | 100% | 0% | 0% | 0% | 0% | Comment: stability of initial crystal form (pattern A) [1, 5]: stable form. Same form (pattern A); Thermal Gravimetric Analysis, weight loss [3]: Weight loss of 0.3047%
CCCCCCCCCCCCOC(=O)Oc1ccc2c3c1O[C@H]1C(=O)CC[C@@]4(O)C(C2)N(CC2CC2)CC[C@]314 [Compound 11, (4aS,7aR,12bS)-3-(cyclopropylmethyl)-4a-hydroxy-7-oxo-2,3,4,4a,5,6,7,7a-octahydro-1H-4,12-methanobenzofuro[3,2-e]isoquinolin-9-yl dodecyl carbonate] | Pattern A | Clear | Slurry | Pattern A | Clear | Slurry | Pattern B | Clear | Clear | Pattern A | Clear | Slurry | Pattern A | Clear | Clear | 100% | 0.7% | 0.3% | 0.2% | 0% | Comment: stability of initial crystal form (pattern A) [1, 5]: to be stable form; Pattern A generated; Thermal Gravimetric Analysis, weight loss [3]: Weight loss of 0.30% at; Approximate Solubility (mg/mL) in Excipient: Sesame oil ([4]; obs. temp. 25 °C): <50 mg/mL
C=C1CC[C@@]2(O)C3Cc4ccc(OC(=O)OCCCCCCCCCCCCCCCC)c5c4[C@@]2(CCN3CC2CC2)[C@H]1O5 [Compound 19, (4aS,7aS,12bS)-3-(cyclopropylmethyl)-4a-hydroxy-7-methylene-2,3,4,4a,5,6,7,7a-octahydro-1H-4,12-methanobenzofuro[3,2-e]isoquinolin-9-yl hexadecyl carbonate] | Pattern A | Clear | Slurry | Pattern A | Clear | Slurry | Pattern A | Clear | Slurry | Pattern A | Clear | Slurry | Pattern A | Clear | Clear | 100% | 70.1% | 71.5% | 43.8% | 33.3% | Comment: stability of initial crystal form (pattern A) [1, 5]: to be stable fomr. Same crystal form; Thermal Gravimetric Analysis, weight loss [3]: Weight loss of 0.1623%
CCCCCCCCCCCCCCCCOC(=O)Oc1ccc2c3c1O[C@H]1C(=O)CC[C@@]4(O)C(C2)N(CC2CC2)CC[C@]314 [Compound 21, (4aS,7aR,12bS)-3-(cyclopropylmethyl)-4a-hydroxy-7-oxo-2,3,4,4a,5,6,7,7a-octahydro-1H-4,12-methanobenzofuro[3,2-e]isoquinolin-9-yl hexadecyl carbonate] | Pattern A | Clear | Slurry | Pattern A | Clear | Slurry | Pattern A | Clear | Slurry | Pattern A | Clear | Slurry | Pattern A | Clear | Clear | 100% | 73.5% | 68.3% | 59.8% | 40.9% | Comment: stability of initial crystal form (pattern A) [1, 5]: stable form. Same crystal form; X-ray Powder Diffraction ([3]; solid state drug substance, XRPD/PLM): Crystal Form with partial; Approximate Solubility (mg/mL) in Excipient: Sesame oil ([4]; obs. temp. 40 °C): 101 to 134.5 mg/mL
C=C1CC[C@@]2(O)C3Cc4ccc(OC(=O)OCCCCCCCCCCCCCC)c5c4[C@@]2(CCN3CC2CC2)[C@H]1O5 [Compound 31, (4aS,7aS,12bS)-3-(cyclopropylmethyl)-4a-hydroxy-7-methylene-2,3,4,4a,5,6,7,7a-octahydro-1H-4,12-methanobenzofuro[3,2-e]isoquinolin-9-yl tetradecyl carbonate] | Pattern A | Clear | Slurry | Pattern A | Clear | Clear | Pattern A | Clear | Slurry | Pattern A | Clear | Clear | Pattern A | Clear | Slurry | 100% | 123.2% | 73.5% | 54.4% | 46.4% | Thermal Gravimetric Analysis, weight loss [3]: Weight loss of 0.7244%; Approximate Solubility (mg/mL) in Excipient: Sesame oil ([4]; obs. temp. 25 °C): >413.5 mg/mL
CCCCCCCCCCCCCCCC(=O)Oc1ccc2c3c1O[C@H]1C(=O)CC[C@@]4(O)C(C2)N(CC2CC2)CC[C@]314 [Compound 55, (4aS,7aR,12bS)-3-(cyclopropylmethyl)-4a-hydroxy-7-oxo-2,3,4,4a,5,6,7,7a-octahydro-1H-4,12-methanobenzofuro[3,2-e]isoquinolin-9-yl palmitate] | Pattern B | Clear | Slurry | Pattern B | Clear | Slurry | Pattern B | Clear | Slurry | Pattern B | Clear | Slurry | Pattern B | Clear | Clear | 100% | 77.3% | 47.2% | 27.1% | 15.6% | Comment: stability of initial crystal form (pattern A) [1, 5]: Cannot determine which crystal form; Thermal Gravimetric Analysis, weight loss [3]: Weight loss of 0.2597%; Approximate Solubility (mg/mL) in Excipient: Ethanol ([4]; Ethanol, obs. temp. 40 °C): >401.1 mg/mL; Approximate Solubility (mg/mL) in Excipient: Sesame oil ([4]; obs. temp. 40 °C): >394.8 mg/mL
